In paper PMC3976565 (Science (New York, N.Y.), 2013):

Target: SelA-ΔN (Aquifex aeolicus, UniProt O67140)
Experiment: X-ray crystallography
Format: binding
Conditions: 3.25 A; covalent, Lys285; thiosulfate co-bound

Sequence of SelA-ΔN (O67140 62-452, stated change not applied): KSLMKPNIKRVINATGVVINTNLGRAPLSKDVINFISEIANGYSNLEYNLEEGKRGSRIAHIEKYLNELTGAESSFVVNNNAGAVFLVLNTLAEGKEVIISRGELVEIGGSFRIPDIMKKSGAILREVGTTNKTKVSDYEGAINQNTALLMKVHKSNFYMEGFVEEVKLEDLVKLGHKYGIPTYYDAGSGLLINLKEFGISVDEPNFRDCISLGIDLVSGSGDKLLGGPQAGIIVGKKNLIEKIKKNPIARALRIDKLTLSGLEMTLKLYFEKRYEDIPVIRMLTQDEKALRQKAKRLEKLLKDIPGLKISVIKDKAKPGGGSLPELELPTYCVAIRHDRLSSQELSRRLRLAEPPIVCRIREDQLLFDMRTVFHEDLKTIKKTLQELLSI

In the case of `Cc1ncc(COP(=O)(O)O)c(C=O)c1O` [PLP], the X-ray crystallography is reported as “SelA-ΔN in complex with thiosulfate. PLP and thiosulfate ions (TS1 to TS3) are shown”.
